{"source": "patent US9409880B2", "about": "“Modulators of TLR3/dsRNA complex and uses thereof” (The Regents of the University of Colorado, a body corporate, priority 2011, dated 2016)", "key": {"[1]": {"target": "T1, TLR3 (Mus musculus, UniProt Q99MB1)", "T1 construct": "endogenous in cells; host or cells: RAW 264.7", "T1 sequence (Q99MB1 26-905)": "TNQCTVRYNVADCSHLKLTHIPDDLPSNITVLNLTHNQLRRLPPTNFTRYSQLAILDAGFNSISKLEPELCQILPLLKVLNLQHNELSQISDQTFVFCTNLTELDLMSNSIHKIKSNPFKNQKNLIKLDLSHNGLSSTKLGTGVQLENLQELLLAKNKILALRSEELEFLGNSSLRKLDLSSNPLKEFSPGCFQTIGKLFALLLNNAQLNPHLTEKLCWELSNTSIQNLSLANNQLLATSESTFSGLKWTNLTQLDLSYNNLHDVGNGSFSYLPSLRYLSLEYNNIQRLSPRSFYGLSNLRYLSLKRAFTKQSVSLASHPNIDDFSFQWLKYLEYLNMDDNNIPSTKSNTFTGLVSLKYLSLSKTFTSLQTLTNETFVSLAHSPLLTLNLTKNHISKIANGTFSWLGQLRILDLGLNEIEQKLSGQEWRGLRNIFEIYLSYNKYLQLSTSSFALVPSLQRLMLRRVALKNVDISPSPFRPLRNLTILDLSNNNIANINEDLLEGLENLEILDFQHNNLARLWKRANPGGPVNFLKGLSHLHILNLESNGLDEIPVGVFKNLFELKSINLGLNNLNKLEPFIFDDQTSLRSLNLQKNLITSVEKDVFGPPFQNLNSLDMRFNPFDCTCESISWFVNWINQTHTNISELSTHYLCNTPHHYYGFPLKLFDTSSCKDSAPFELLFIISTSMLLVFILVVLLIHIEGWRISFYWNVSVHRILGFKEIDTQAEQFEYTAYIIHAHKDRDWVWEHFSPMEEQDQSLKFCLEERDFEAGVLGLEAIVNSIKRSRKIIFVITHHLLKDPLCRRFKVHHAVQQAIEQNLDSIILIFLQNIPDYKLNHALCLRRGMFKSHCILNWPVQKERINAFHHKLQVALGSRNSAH", "experiment": "In vitro TLR3 inhibition assay: Poly IC-induced NO production in RAW 264.7 cells", "assay_type": "cell-based", "excerpt": "The initial hits (Figure A) were first evaluated using the present inventors' previously established high-throughput cell assay of TLR3 activation. See, for example, ACS Med. Chem. Lett. 2010, 1, 194 and Bioorg. Med. Chem. Lett., 2010, 20, 5411. Poly IC (Polyriboinosinic:polyribocytidylic acid) has been reported to selectively activate TLR3 signaling, resulting in the activation of nitric oxide synthase and the production nitric oxide (NO) in RAW 264.7 macrophage cells. The NO level was monitored as an indicator of Poly IC-induced TLR3 activation to evaluate the drug's inhibitory activity.\nRAW 264.7 (Mouse leukaemic monocyte macrophage cell line) cells were grown in RPMI 1640 medium, supplemented with 10% FBS, penicillin (100 U/mL) and streptomycin ([…]). RAW cells were then planted in 96-well plates at 100,000 cells per well and grown for 24 h in the media descried previously at 37° C. in a 5% CO2 humidified incubator. After 24 h, non-adherent cells and media were removed and replaced with fresh RPMI 1640 medium (only RPMI). The adherent macrophages were treated with high molecular weight polyinosine-polycytidylic acid (Poly IC) (10 μg/mL) (Invivogen), an agonist of TLR3, and then added different concentrates of potential inhibitor. Two rows were only treated with Poly IC as an control. Plates were then incubated for an additional 24 h. Following incubation 100 μL of media was removed and added to flat black 96-well microfluor plates (Thermo Scientific, MA, USA). To each well, 10 μL of 2,3-diaminonaphthalene (0.05 mg/mL in 0.62 M aqueous HCl solution) was added and incubated for 15 min in the dark. The reaction was quenched by addition of 5 μL of a 3 M aqueous NaOH solution and the plate was read on Beckman Coulter DTX880 reader (Beckman Coulter, Calif., USA) with excitation at 365 nm and emission at 450 nm. The nitrite (a stable metabolite of nitric oxide) concentration was determined from a nitrite standard curve. The inhibition rate (%) of NO release was determined using the following formula: Inhibition (%)=[Poly IC(OD450)−Compounds (OD450)]/[Poly IC(OD450)−Control (OD450)]×100. The IC50 values for both inhibition and cytotoxicity were determined graphically using software Origin v7.5."}, "[2]": {"target": "T2, TLR2/1 (Mus musculus, UniProt Q9EPQ1+Q9QUN7)", "T2 construct": "endogenous in cells; host or cells: RAW 264.7", "T2 sequence (Q9QUN7 25-784)": "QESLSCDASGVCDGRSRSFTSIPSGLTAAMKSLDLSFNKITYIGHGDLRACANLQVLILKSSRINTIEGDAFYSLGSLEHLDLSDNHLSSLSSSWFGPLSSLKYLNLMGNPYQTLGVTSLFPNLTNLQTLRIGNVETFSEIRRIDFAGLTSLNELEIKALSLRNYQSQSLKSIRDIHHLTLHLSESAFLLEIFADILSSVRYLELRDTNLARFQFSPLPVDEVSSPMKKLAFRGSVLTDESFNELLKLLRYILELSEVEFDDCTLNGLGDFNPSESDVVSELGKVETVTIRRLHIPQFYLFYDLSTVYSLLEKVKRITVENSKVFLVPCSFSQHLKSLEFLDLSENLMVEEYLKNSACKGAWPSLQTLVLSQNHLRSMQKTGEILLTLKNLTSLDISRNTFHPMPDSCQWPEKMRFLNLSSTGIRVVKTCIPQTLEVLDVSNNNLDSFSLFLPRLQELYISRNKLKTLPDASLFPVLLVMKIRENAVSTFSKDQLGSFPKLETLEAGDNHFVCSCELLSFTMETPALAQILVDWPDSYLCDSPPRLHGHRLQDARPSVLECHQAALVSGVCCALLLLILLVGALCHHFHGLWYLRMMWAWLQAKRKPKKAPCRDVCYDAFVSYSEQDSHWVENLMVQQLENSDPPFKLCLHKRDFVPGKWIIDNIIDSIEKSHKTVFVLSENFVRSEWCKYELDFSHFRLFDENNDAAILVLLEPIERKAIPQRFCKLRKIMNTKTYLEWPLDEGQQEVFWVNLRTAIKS", "T2 sequence (Q9EPQ1 25-795 limits assumed)": "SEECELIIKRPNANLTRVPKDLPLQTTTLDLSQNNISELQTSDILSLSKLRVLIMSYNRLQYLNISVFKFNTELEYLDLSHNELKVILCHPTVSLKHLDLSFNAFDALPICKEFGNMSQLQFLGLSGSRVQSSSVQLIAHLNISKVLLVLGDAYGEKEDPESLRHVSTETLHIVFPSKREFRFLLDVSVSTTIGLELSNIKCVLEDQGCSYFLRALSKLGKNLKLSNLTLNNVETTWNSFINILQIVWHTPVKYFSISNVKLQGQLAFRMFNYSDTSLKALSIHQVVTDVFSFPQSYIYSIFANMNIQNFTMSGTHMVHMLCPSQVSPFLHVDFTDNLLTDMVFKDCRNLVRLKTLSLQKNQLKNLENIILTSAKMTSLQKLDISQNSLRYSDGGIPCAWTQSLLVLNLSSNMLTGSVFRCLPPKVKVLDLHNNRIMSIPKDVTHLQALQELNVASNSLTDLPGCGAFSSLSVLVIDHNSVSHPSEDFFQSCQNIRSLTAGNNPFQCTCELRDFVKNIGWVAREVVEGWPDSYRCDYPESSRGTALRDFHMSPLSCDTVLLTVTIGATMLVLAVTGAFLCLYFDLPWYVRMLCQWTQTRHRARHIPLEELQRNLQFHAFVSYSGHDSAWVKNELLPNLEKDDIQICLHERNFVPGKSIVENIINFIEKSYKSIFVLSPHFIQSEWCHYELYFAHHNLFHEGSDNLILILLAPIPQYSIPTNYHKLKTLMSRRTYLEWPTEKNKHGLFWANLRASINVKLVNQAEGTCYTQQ", "experiment": "RAW264.7 cell nitric oxide TLR selectivity assay (Pam3CSK4)", "assay_type": "cell-based", "conditions": "27 μM"}, "[3]": {"test_system": "RAW 264.7 cells", "experiment": "WST-1 cytotoxicity assay", "assay_type": "cell-based, Mouse", "conditions": "WST-1 methodology; different concentrations", "experimental": "This assay was conducted in a 96-well plate with 5,000 cells in 100 μL media (RPMI 1640 medium, supplemented with 10% FBS, penicillin (100 U/mL) and streptomycin ([…])) per well. Eight wells were left empty for blank controls. The plates were incubated (37° C., 5% CO2) overnight to allow the cells to attach to the wells. WST-1 proliferation reagent (Roche) was added to the cells (10 μL per well) and continued to incubate for 1-2 h at 37° C. Plates were checked visually by comparing the colour of wells with media without cells (colour remained pink) with wells contained untreated cells (colour is orange). When a clear difference could be seen by naked eye, results were read by spectrophotometer at 490 nm. Cytotoxicity (%) was determined using the following formula: Cytotoxicity (%)=(1−[Compounds (OD490)−Background (OD490)]/[Control (OD490)−Background (OD490)])×100."}, "[4]": {"test_system": "representative kinases", "experiment": "Kinase profiling", "assay_type": "biochemical", "conditions": "10 μM"}, "[5]": {"test_system": "MCP-1", "experiment": "In vivo poly IC-induced serum MCP-1 in wild-type mice", "conditions": "pretreatment 30 minutes prior to 100 μg poly IC i.v., serum 4 hours after", "experimental": "Wild-type mice were treated with a single 100 μg of poly IC i.v. injection and the serum concentration of MCP-1 was investigated 4 hours after the treatment. […] Pretreatment with compound 4a at various concentrations 30 minutes prior to poly I:C application decreased MCP-1 production by about 50%."}, "[6]": {"test_system": "poly IC-induced impaired re-endothelialization", "experiment": "Vascular repair: re-endothelialization after carotid artery denudation", "assay_type": "in vivo, Mice", "conditions": "27 μg i.p. every 48 hours; 100 μg poly IC i.v.; Evan's blue staining", "experimental": "Mice were subjected to a 4 mm long electric denudation of the left common carotid artery. These C57B1/6J littermates were then treated with 100 μg of poly IC or vehicle (NaCl 0.9%) via i.v. injection every 48 hours for five days. Half of the mice in each group were also treated with 27 μg compound 4a or vehicle (DMSO) via i.p. injection every 48 hours. The mice were then sacrificed and aortic arch including both common carotid arteries excised. The remaining endothelial lesion was visualized using Evan's blue staining."}}, "data": [{"compound": "O=C(N[C@H](Cc1ccccc1)C(=O)O)c1sc2cc(F)ccc2c1Cl", "note": "[Compound 4a, (R)-2-(3-chloro-6-fluorobenzo[b]thiophene-2-carboxamido)-3-phenylpropanoic acid]", "values": [{"measurement": "TLR3 signaling in specificity test", "setting": "[1]; 27 μM, Poly IC", "value": "selectively inhibited TLR3 signaling"}, {"measurement": "increase in potency compared to T5626448", "setting": "[1]; 4a vs T5626448", "value": "~45", "unit": "fold"}, {"measurement": "IC50", "setting": "[1]; Poly IC-induced TLR3 activation, cell assay", "value": "3.44 ± 0.41", "unit": "µM"}, {"measurement": "effect on TLR2/1 signaling", "setting": "[2]", "value": "without significantly affecting other TLRs"}, {"measurement": "toxicity in RAW 264.7 cells", "setting": "[3]", "value": "did not show any significant toxicity"}, {"measurement": "effect on kinase activities", "setting": "[4]", "value": "did not significantly affect activities"}, {"measurement": "decrease of MCP-1 production", "setting": "[5]", "value": "about 50%"}, {"measurement": "poly IC-induced impaired re-endothelialization", "setting": "[6]", "value": "significantly improves poly IC-induced impaired re-endothelialization"}]}]}
